# Tests used:
# Assay in all cases: relative viability (nuclei count vs DMSO), 5 days (fraction); higher = more cells survive
# PC-3 [JPC-3] = system: PC-3 [JPC-3]
# Summary of the method: (§1)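 Lung cancer cell lines in 1536-well plates got either a single drug or a fixed anchor-drug dose together with five library-drug doses (not always all listed) in √10 steps, by pin tool, on the day after seeding. Nuclei were counted after 5 days, and relative viability is the treated-to-vehicle ratio of nuclei counts. Values are medians of duplicate plates.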
# ChaGo-K-1 = system: ChaGo-K-1
# Summary of the method: as §1
# NCI-H2342 = system: NCI-H2342
# Summary of the method: as §1
# NCI-H661 = system: NCI-H661
# Summary of the method: as §1
# NCI-H1975 = system: NCI-H1975
# Summary of the method: as §1
# LXF-289 = system: LXF-289
# Summary of the method: as §1
# LK-2 = system: LK-2
# Summary of the method: as §1
# NCI-H2087 = system: NCI-H2087
# Summary of the method: as §1
# NCI-H1944 = system: NCI-H1944
# Summary of the method: as §1
# NCI-H358 = system: NCI-H358
# Summary of the method: as §1
# NCI-H838 = system: NCI-H838
# Summary of the method: as §1
smiles,measurement,setting,value
O=c1cc(-c2cccc3c2Sc2ccccc2S3)oc(N2CCOCC2)c1 + Cc1cc(Nc2cc(N3CCN(C)CC3)nc(Sc3ccc(NC(=O)C4CC4)cc3)n2)n[nH]1 [Tozasertib] (partner 0.1 µM),relative viability,PC-3 [JPC-3]; first compound 0.08 µM,0.861
same,relative viability,PC-3 [JPC-3]; first compound 0.253 µM,0.871
same,relative viability,PC-3 [JPC-3]; first compound 0.8 µM,0.827
same,relative viability,PC-3 [JPC-3]; first compound 2.53 µM,0.805
same,relative viability,PC-3 [JPC-3]; first compound 8 µM,0.714
same,relative viability,ChaGo-K-1; first compound 0.08 µM,0.213
same,relative viability,ChaGo-K-1; first compound 0.253 µM,0.215
same,relative viability,ChaGo-K-1; first compound 0.8 µM,0.218
same,relative viability,ChaGo-K-1; first compound 2.53 µM,0.21
same,relative viability,ChaGo-K-1; first compound 8 µM,0.209
same,relative viability,NCI-H2342; first compound 0.08 µM,0.505
same,relative viability,NCI-H2342; first compound 0.253 µM,0.495
same,relative viability,NCI-H2342; first compound 0.8 µM,0.472
same,relative viability,NCI-H2342; first compound 2.53 µM,0.532
same,relative viability,NCI-H2342; first compound 8 µM,0.466
same,relative viability,NCI-H661; first compound 0.08 µM,0.357
same,relative viability,NCI-H661; first compound 0.253 µM,0.357
same,relative viability,NCI-H661; first compound 0.8 µM,0.351
same,relative viability,NCI-H661; first compound 2.53 µM,0.339
same,relative viability,NCI-H661; first compound 8 µM,0.353
same,relative viability,NCI-H1975; first compound 0.08 µM,0.867
same,relative viability,NCI-H1975; first compound 0.253 µM,0.803
same,relative viability,NCI-H1975; first compound 0.8 µM,0.653
same,relative viability,NCI-H1975; first compound 2.53 µM,0.341
same,relative viability,NCI-H1975; first compound 8 µM,0.299
same,relative viability,LXF-289; first compound 0.08 µM,0.186
same,relative viability,LXF-289; first compound 0.253 µM,0.164
same,relative viability,LXF-289; first compound 0.8 µM,0.223
same,relative viability,LXF-289; first compound 2.53 µM,0.15
same,relative viability,LXF-289; first compound 8 µM,0.17
same,relative viability,LK-2; first compound 0.08 µM,0.184
same,relative viability,LK-2; first compound 0.253 µM,0.165
same,relative viability,LK-2; first compound 0.8 µM,0.176
same,relative viability,LK-2; first compound 2.53 µM,0.162
same,relative viability,LK-2; first compound 8 µM,0.16
same,relative viability,NCI-H2087; first compound 0.08 µM,0.231
same,relative viability,NCI-H2087; first compound 0.253 µM,0.282
same,relative viability,NCI-H2087; first compound 0.8 µM,0.266
same,relative viability,NCI-H2087; first compound 2.53 µM,0.191
same,relative viability,NCI-H2087; first compound 8 µM,0.171
same,relative viability,NCI-H1944; first compound 0.08 µM,0.252
same,relative viability,NCI-H1944; first compound 0.253 µM,0.256
same,relative viability,NCI-H1944; first compound 0.8 µM,0.23
same,relative viability,NCI-H1944; first compound 2.53 µM,0.24
same,relative viability,NCI-H1944; first compound 8 µM,0.232
same,relative viability,NCI-H358; first compound 0.08 µM,0.0969
same,relative viability,NCI-H358; first compound 0.253 µM,0.101
same,relative viability,NCI-H358; first compound 0.8 µM,0.12
same,relative viability,NCI-H358; first compound 2.53 µM,0.0965
same,relative viability,NCI-H358; first compound 8 µM,0.111
same,relative viability,NCI-H838; first compound 0.08 µM,0.295
same,relative viability,NCI-H838; first compound 0.253 µM,0.277
same,relative viability,NCI-H838; first compound 0.8 µM,0.245
same,relative viability,NCI-H838; first compound 2.53 µM,0.273

# Reference: the supplement of paper PMC10307832
